According to PubChem BioAssay (NCI):
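Values below derive from 48-hour exposures of cells grown in 96-well plates, with endpoints linearly interpolated between the two concentrations bracketing the appropriate inhibition level. TGI marks complete inhibition of growth.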

What was measured:
Assay in all cases: NCI tumour cell line growth inhibition, 48 h
[1] = system: 786-0 renal
[2] = system: A498 renal
[3] = system: A549 NSCLC
[4] = system: ACHN renal
[5] = system: BT-549 breast
[6] = system: CCRF-CEM leukemia
[7] = system: COLO 205 colon
[8] = system: DU-145 prostate
[9] = system: EKVX NSCLC
[10] = system: HCC-2998 colon
[11] = system: HCT-116 colon
[12] = system: HCT-15 colon
[13] = system: HL-60(TB) leukemia
[14] = system: HOP-62 NSCLC
[15] = system: HOP-92 NSCLC
[16] = system: HS 578T breast
[17] = system: HT29 colon
[18] = system: IGROV1 ovarian
[19] = system: K-562 leukemia
[20] = system: KM12 colon
[21] = system: LOX IMVI melanoma
[22] = system: M14 melanoma
[23] = system: MALME-3M melanoma
[24] = system: MCF7 breast
[25] = system: MDA-MB-231 breast
[26] = system: MDA-MB-435
[27] = system: MDA-N
[28] = system: MOLT-4 leukemia
[29] = system: NCI-H226 lung
[30] = system: NCI-H23 lung
[31] = system: NCI-H460 lung
[32] = system: NCI-H522 lung
[33] = system: NCI/ADR-RES ovarian
[34] = system: OVCAR-3 ovarian
[35] = system: OVCAR-4 ovarian
[36] = system: OVCAR-5 ovarian
[37] = system: OVCAR-8 ovarian
[38] = system: RPMI-8226 leukemia
[39] = system: RXF 393 renal
[40] = system: SF-268 CNS
[41] = system: SF-295 CNS
[42] = system: SF-539 CNS
[43] = system: SK-MEL-2 melanoma
[44] = system: SK-MEL-28 melanoma
[45] = system: SK-MEL-5 melanoma
[46] = system: SK-OV-3 ovarian
[47] = system: SN12C renal
[48] = system: SNB-19 CNS
[49] = system: SNB-75 CNS
[50] = system: SR leukemia
[51] = system: SW-620 colon
[52] = system: T-47D breast
[53] = system: TK-10 renal
[54] = system: U251 CNS
[55] = system: UACC-257 melanoma
[56] = system: UACC-62 melanoma
[57] = system: UO-31 renal
[58] = system: CAKI-1 renal
[59] = system: PC-3 prostate

Cc1ccc2c(c1)C(=O)/C(=C1/CCc3ccc(C)cc31)C2
TGI [1]: > 100 µM
TGI [2]: > 100 µM
TGI [3]: > 100 µM
TGI [4]: > 100 µM
TGI [5]: > 100 µM
TGI [6]: > 100 µM
TGI [7]: > 100 µM
TGI [8]: > 100 µM
TGI [9]: > 100 µM
TGI [10]: > 100 µM
TGI [11]: > 100 µM
TGI [12]: > 100 µM
TGI [13]: > 100 µM
TGI [14]: > 100 µM
TGI [15]: > 100 µM
TGI [16]: > 100 µM
TGI [17]: > 100 µM
TGI [18]: > 100 µM
TGI [19]: > 100 µM
TGI [20]: > 100 µM
TGI [21]: > 100 µM
TGI [22]: > 100 µM
TGI [23]: > 100 µM
TGI [24]: > 100 µM
TGI [25]: > 100 µM
TGI [26]: > 100 µM
TGI [27]: > 100 µM
TGI [28]: > 100 µM
TGI [29]: > 100 µM
TGI [30]: > 100 µM
TGI [31]: > 100 µM
TGI [32]: > 100 µM
TGI [33]: > 100 µM
TGI [34]: > 100 µM
TGI [35]: > 100 µM
TGI [36]: > 100 µM
TGI [37]: > 100 µM
TGI [38]: > 100 µM
TGI [39]: > 100 µM
TGI [40]: > 100 µM
TGI [41]: > 100 µM
TGI [42]: > 100 µM
TGI [43]: > 100 µM
TGI [44]: > 100 µM
TGI [45]: > 100 µM
TGI [46]: > 100 µM
TGI [47]: > 100 µM
TGI [48]: > 100 µM
TGI [49]: 71.1 µM
TGI [50]: > 100 µM
TGI [51]: > 100 µM
TGI [52]: > 100 µM
TGI [53]: > 100 µM
TGI [54]: > 100 µM
TGI [55]: > 100 µM
TGI [56]: > 100 µM
TGI [57]: > 100 µM

O=C(CCl)N1CCCCC1C1(c2cc3ccccc3[nH]2)OCCO1 (centres undefined)
TGI [2]: 11.8 µM
TGI [3]: 23.3 µM
TGI [4]: 13.9 µM
TGI [5]: 6.83 µM
TGI [58]: 1860 nM
TGI [7]: 12.1 µM
TGI [8]: 9.89 µM
TGI [9]: 5.74 µM
TGI [10]: 26.9 µM
TGI [11]: 10.2 µM
TGI [12]: 33.9 µM
TGI [13]: > 100 µM
TGI [14]: 20.6 µM
TGI [15]: 24.7 µM
TGI [16]: 13.9 µM
TGI [17]: 17.6 µM
TGI [18]: 0.558 µM
TGI [19]: 15.9 µM
TGI [20]: 8.48 µM
TGI [21]: 0.141 µM
TGI [22]: 13.6 µM
TGI [23]: 14.5 µM
TGI [24]: 8.97 µM
TGI [25]: 12.8 µM
TGI [26]: 17.8 µM
TGI [27]: 8.81 µM
TGI [28]: 15.8 µM
TGI [29]: 16.3 µM
TGI [30]: 8.47 µM
TGI [31]: > 34.5 µM
TGI [32]: 0.448 µM
TGI [33]: 14.6 µM
TGI [34]: 5.34 µM
TGI [35]: 9.28 µM
TGI [36]: 17.2 µM
TGI [37]: 17.6 µM
TGI [59]: 8.83 µM
TGI [38]: 13.7 µM
TGI [39]: 12.8 µM
TGI [40]: 15.4 µM
TGI [41]: 11.5 µM
TGI [42]: 4.51 µM
TGI [43]: 20.2 µM
TGI [44]: 35.6 µM
TGI [45]: 22.6 µM
TGI [46]: 20.2 µM
TGI [47]: 9.85 µM
TGI [48]: 31.5 µM
TGI [49]: 7.3 µM
TGI [51]: 58.9 µM
TGI [52]: 26 µM
TGI [53]: 10.1 µM
TGI [54]: 12.7 µM
TGI [55]: 13.1 µM
TGI [56]: 7.87 µM
TGI [57]: 11.3 µM

CN(CCc1ccc(Br)cc1)CCN1CCCCC1
TGI [1]: > 100 µM
TGI [2]: 63.2 µM
TGI [3]: > 100 µM
TGI [4]: > 100 µM
TGI [5]: 96.1 µM
TGI [58]: > 100000 nM
TGI [6]: 36.6 µM
TGI [7]: 32.4 µM
TGI [8]: > 100 µM
TGI [9]: > 100 µM
TGI [10]: > 100 µM
TGI [11]: > 100 µM
TGI [12]: > 100 µM
TGI [14]: > 100 µM
TGI [15]: 82.8 µM
TGI [16]: 52.6 µM
TGI [17]: 38.8 µM
TGI [18]: > 100 µM
TGI [19]: 41.5 µM
TGI [20]: 41.9 µM
TGI [21]: 94.2 µM
TGI [22]: 45.8 µM
TGI [23]: 48.7 µM
TGI [24]: 54.4 µM
TGI [25]: > 100 µM
TGI [26]: 95.3 µM
TGI [27]: 88 µM
TGI [28]: > 100 µM
TGI [29]: > 100 µM
TGI [30]: > 100 µM
TGI [31]: > 100 µM
TGI [32]: 51.7 µM
TGI [33]: > 100 µM
TGI [34]: > 100 µM
TGI [35]: > 100 µM
TGI [36]: > 100 µM
TGI [37]: > 100 µM
TGI [59]: > 100 µM
TGI [38]: > 100 µM
TGI [39]: > 100 µM
TGI [40]: > 100 µM
TGI [41]: 61.4 µM
TGI [42]: 64.8 µM
TGI [43]: 64.3 µM
TGI [44]: 52.1 µM
TGI [45]: 28.2 µM
TGI [46]: > 100 µM
TGI [47]: > 100 µM
TGI [48]: > 100 µM
TGI [49]: 85.4 µM
TGI [51]: > 100 µM
TGI [52]: > 100 µM
TGI [53]: > 100 µM
TGI [54]: > 100 µM
TGI [55]: > 100 µM
TGI [57]: > 100 µM
